Test [1] deals with T1, 5-hydroxytryptamine receptor 7 (Homo sapiens, UniProt P34969). The test is described as follows: Binding affinity to 5HT7 (unknown origin).
Test [2] concerns the target T1, 5-hydroxytryptamine receptor 7. Kind of test: Displacement of [3H]5-CT from human 5HT7 receptor expressed in COS7 cells incubated for 30 mins by liquid scintillation counting method. The test is classed as cell-based. For orientation: Displacement assays read how much labelled ligand stays bound in the presence of the test substance.
Test [3] concerns the target D(2) dopamine receptor (Rattus norvegicus, UniProt P61169). The test is described as follows: Displacement of [3H]spiperone from dopamine D2 receptor in Sprague-Dawley rat striatal membranes incubated for 40 mins. On the set-up: species or system Striatum, Membrane.
Test [4] addresses 5-hydroxytryptamine receptor 2A (Rattus norvegicus, UniProt P14842). Kind of test: Displacement of [3H]ketanserin from 5HT2A receptor in rat cortical membranes incubated for 15 mins by liquid scintillation spectrometry. The test is classed as cell membranes.
Test [5] concerns the target 5-hydroxytryptamine receptor 2A (Homo sapiens, UniProt P28223). Kind of test: Displacement of [3H]ketanserin from human 5HT2AR expressed in CHO-K1 cell membranes after 1 hr by microbeta plate reader method.
In test [6] the target is 5-hydroxytryptamine receptor 6 (Homo sapiens, UniProt P50406). The test is described as follows: Displacement of [3H]LSD from human 5HT6 receptor expressed in HEK293 cell membranes after 1 hr by microbeta plate reader method.
The target of test [7] is T1, 5-hydroxytryptamine receptor 7. Kind of test: Displacement of [3H]5-CT from human 5HT7B receptor expressed in HEK293 cell membranes after 1 hr by microbeta plate reader method.
The target in test [8] is D(2) dopamine receptor (Homo sapiens, UniProt P14416). The test is described as follows: Displacement of [3H]raclopride from human dopamine D2L receptor expressed in HEK293 cells incubated for 1 hr by microbeta plate reader method. The test is classed as cell-based.
The target of test [9] is T2, 5-hydroxytryptamine receptor 1A (Homo sapiens, UniProt P08908).
T2 sequence (P08908 whole entry): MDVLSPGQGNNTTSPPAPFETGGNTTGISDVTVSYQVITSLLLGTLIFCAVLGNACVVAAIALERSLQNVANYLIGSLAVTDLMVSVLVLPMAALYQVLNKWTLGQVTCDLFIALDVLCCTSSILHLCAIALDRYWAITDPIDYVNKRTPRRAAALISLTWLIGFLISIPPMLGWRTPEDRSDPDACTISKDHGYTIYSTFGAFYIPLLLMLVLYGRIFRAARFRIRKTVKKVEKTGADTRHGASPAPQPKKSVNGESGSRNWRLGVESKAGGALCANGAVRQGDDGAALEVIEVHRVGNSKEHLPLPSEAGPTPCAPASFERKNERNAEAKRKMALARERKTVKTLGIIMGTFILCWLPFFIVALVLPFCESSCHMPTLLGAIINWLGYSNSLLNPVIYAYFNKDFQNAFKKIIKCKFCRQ
Kind of test: Displacement of [3H]-8-OH-DPAT from human 5HT1AR expressed in HEK293 cell membranes after 1 hr by microbeta plate reader method.

What is called Ki is a dissociation constant, usually derived from enzyme kinetics or from competition with a known ligand.

Sequence of 5-hydroxytryptamine receptor 2A (Homo sapiens, UniProt P28223) (P28223 whole entry): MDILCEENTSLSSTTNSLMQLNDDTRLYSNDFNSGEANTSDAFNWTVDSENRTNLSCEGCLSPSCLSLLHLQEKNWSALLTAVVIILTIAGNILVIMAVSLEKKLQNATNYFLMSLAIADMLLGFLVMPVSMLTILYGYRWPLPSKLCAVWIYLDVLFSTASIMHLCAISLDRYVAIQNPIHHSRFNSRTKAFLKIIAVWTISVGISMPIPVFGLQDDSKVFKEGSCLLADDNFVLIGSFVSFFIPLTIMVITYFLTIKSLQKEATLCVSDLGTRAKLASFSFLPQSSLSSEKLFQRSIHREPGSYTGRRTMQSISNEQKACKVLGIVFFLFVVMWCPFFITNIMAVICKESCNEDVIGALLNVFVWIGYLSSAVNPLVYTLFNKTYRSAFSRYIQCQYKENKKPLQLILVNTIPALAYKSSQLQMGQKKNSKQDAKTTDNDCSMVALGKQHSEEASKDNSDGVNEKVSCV
T1 sequence (P34969 whole entry): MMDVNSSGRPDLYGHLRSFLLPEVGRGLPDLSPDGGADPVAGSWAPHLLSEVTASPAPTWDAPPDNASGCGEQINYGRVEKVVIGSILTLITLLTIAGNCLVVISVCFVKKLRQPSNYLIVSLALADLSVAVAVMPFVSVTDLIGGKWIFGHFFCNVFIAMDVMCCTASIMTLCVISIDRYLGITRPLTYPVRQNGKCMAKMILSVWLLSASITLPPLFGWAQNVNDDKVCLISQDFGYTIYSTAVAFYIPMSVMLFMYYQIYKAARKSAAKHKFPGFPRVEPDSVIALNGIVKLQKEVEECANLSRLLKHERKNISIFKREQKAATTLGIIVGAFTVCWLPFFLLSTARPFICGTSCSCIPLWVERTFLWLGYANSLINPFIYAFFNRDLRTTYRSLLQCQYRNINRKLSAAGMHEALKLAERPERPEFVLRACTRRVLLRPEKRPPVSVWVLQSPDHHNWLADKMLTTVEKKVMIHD
Sequence of 5-hydroxytryptamine receptor 2A (Rattus norvegicus, UniProt P14842) (P14842 whole entry): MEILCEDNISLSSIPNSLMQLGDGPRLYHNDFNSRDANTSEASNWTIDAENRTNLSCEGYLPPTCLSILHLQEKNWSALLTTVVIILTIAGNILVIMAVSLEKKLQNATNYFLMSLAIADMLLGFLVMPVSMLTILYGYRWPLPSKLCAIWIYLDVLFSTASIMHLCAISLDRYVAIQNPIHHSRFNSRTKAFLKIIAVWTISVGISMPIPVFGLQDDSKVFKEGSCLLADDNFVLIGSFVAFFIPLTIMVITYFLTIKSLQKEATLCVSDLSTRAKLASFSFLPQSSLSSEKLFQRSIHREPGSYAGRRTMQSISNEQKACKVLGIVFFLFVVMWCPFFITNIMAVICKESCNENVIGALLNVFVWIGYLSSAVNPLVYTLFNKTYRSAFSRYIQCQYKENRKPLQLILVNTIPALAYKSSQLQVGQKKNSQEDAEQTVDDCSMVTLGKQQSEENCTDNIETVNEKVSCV
Sequence of D(2) dopamine receptor (Homo sapiens, UniProt P14416) (P14416 whole entry): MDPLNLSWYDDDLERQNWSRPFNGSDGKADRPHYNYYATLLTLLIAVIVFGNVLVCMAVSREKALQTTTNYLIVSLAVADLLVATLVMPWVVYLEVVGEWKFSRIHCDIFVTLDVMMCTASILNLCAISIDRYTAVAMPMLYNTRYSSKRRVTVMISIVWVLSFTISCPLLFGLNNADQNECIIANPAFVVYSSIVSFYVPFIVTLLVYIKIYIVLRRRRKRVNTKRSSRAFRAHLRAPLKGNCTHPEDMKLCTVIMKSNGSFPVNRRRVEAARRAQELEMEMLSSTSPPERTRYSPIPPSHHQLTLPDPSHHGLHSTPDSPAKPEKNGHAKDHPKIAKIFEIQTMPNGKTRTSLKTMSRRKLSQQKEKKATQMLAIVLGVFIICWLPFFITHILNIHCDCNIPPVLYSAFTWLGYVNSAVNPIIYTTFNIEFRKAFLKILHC
Sequence of 5-hydroxytryptamine receptor 6 (P50406 whole entry): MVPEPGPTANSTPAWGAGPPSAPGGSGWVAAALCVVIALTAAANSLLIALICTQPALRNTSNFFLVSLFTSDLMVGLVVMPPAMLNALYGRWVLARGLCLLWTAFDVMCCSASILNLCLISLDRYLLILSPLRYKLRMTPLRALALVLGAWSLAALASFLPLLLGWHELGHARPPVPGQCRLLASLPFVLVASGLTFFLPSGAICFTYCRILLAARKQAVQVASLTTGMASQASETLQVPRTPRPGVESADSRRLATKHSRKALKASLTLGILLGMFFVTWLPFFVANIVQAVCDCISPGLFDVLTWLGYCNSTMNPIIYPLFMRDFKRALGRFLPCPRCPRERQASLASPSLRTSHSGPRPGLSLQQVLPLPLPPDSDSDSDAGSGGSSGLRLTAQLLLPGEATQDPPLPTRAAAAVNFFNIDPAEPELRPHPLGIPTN
Sequence of D(2) dopamine receptor (Rattus norvegicus, UniProt P61169) (P61169 whole entry): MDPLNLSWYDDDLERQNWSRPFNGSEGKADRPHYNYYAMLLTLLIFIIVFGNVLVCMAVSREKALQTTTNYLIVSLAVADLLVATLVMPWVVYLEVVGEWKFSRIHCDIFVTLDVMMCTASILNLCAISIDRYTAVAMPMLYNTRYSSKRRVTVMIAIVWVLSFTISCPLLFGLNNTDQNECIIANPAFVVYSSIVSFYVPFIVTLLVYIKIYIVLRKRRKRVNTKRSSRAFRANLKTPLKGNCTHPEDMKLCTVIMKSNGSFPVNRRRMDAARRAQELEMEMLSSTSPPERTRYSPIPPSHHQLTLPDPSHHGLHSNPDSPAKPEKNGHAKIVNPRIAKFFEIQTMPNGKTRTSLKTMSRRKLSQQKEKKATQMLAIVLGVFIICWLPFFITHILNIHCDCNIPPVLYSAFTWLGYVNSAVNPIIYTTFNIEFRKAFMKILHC

Compound `COc1ccccc1N1CCN(CCCCCCN2c3cccc4cccc(c34)S2(=O)=O)CC1` came in with a Ki in test [1] of 0.2 µM. In other words, the sub-micromolar range.
Still for that read-out and setting: in the case of `O=S1(=O)c2cccc3cccc(c23)N1CCCCCN1CCN(c2ccccc2)CC1` it was 0.2 µM; in that of `COc1ccccc1N1CCN(CCCCN2c3cccc4cccc(c34)S2(=O)=O)CC1`, 0.2 µM.
On the same count and under the same terms, the figure for `O=S1(=O)c2cccc3cccc(c23)N1CCCCCCN1CCN(c2ccccc2)CC1` is above 1 µM.
In [2], `O=C1Nc2cccc3c2C1(CCCCN1CCN(c2ccccc2Cl)CC1)CCC3` (configuration not stated) showed a Ki of 0.012 µM.
On to `O=S1(=O)c2cccc3cccc(c23)N1CCCCN1CCN(c2ccccc2)CC1`, for which the Ki in test [1] worked out at 1 µM.
As for `O=S1(=O)c2cccc3cccc(c23)N1CCCN1CCN(c2cccc(F)c2)CC1`, the Ki on D(2) dopamine receptor [3] is above 1 µM; in test [4] it was 0.018 µM.
On to `COc1ccccc1N1CCN(CCCCCN2c3cccc4cccc(c34)S2(=O)=O)CC1`, for which, in [1], the Ki is 0.251 µM.
Regarding `O=S1(=O)c2cccc3cccc(c23)N1CCCCCCN1CCN(c2ccc(Cl)cc2)CC1`, the Ki was found to be 0.147 µM in test [5]; 0.433 µM in [6]; 0.28 µM in test [7]; 0.336 µM at D(2) dopamine receptor [8]; 0.197 µM in test [9].
The matching figures for `O=C1c2cccc3cccc(c23)N1CCCCCCN1CCN(c2ccc(Br)cc2)CC1`: 1.49 µM, 3.19 µM, 1.83 µM, 0.204 µM and 0.688 µM.
The matching figures for `O=C1c2cccc3cccc(c23)N1CCCCCCN1CCN(c2cccc(C(F)(F)F)c2)CC1`: 0.773 µM, 2.21 µM, 0.291 µM, 0.496 µM and 0.054 µM.
The matching figures for `O=S1(=O)c2cccc3cccc(c23)N1CCCCCCN1CCN(c2cccc(C(F)(F)F)c2)CC1`: 0.596 µM, 0.374 µM, 0.167 µM, 0.304 µM and 0.132 µM.
Consider `O=S1(=O)c2cccc3cccc(c23)N1CCCCCCN1CCN(c2cccc(Cl)c2Cl)CC1`, for which the Ki in test [5] stood at 0.177 µM; in [6], 0.237 µM; in test [7] it was 0.14 µM; at D(2) dopamine receptor [8], 0.22 µM; in [9], 0.149 µM.
The matching figures for `O=S1(=O)c2cccc3cccc(c23)N1CCCCCCN1CCN(c2cccc(Cl)c2)CC1`: 0.322 µM, 0.624 µM, 0.432 µM, 0.121 µM and 0.046 µM.
The matching figures for `O=S1(=O)c2cccc3cccc(c23)N1CCCCCCN1CCN(c2ccccc2Cl)CC1`: 0.548 µM, 0.507 µM, 0.286 µM, 0.142 µM and 0.106 µM.
The matching figures for `O=S1(=O)c2cccc3cccc(c23)N1CCCCCCN1CCN(c2ccc(C(F)(F)F)cc2)CC1`: 1.53 µM, 0.937 µM, 6 µM, 0.927 µM and 0.989 µM.
For the compound `O=C1c2cccc3cccc(c23)N1CCCCCCN1CCN(c2cccc(Cl)c2)CC1`, the Ki turned out to be 0.429 µM in [5]; 0.48 µM in test [6]; 0.053 µM in test [7]; 0.075 µM at D(2) dopamine receptor [8]; 0.043 µM in [9].
The matching figures for `O=S1(=O)c2cccc3cccc(c23)N1CCCCCCN1CCN(c2ccc(Cl)c(Cl)c2)CC1`: 0.251 µM, 0.225 µM, 0.404 µM, 0.254 µM and 0.079 µM.
The matching figures for `O=S1(=O)c2cccc3cccc(c23)N1CCCCCCN1CCN(c2ccccc2F)CC1`: 0.376 µM, 0.71 µM, 0.203 µM, 0.09 µM and 0.081 µM.
The matching figures for `O=C1c2cccc3cccc(c23)N1CCCCCCN1CCN(c2ccccc2F)CC1`: 0.524 µM, 1.73 µM, 0.42 µM, 0.32 µM and 0.064 µM.
As to `O=C1c2cccc3cccc(c23)N1CCCCCCN1CCN(c2ccc(C(F)(F)F)cc2)CC1`, the inhibition constant (Ki) is 4.35 µM in test [5]; 2.04 µM in test [6]; 49 µM in test [7]; 0.945 µM on D(2) dopamine receptor [8]; 0.536 µM in [9].
The matching figures for `O=C1c2cccc3cccc(c23)N1CCCCCCN1CCN(c2cccc(Cl)c2Cl)CC1`: 0.406 µM, 0.918 µM, 5.09 µM, 0.094 µM and 0.122 µM.
The matching figures for `O=C1c2cccc3cccc(c23)N1CCCCCCN1CCN(c2ccc(Cl)cc2)CC1`: 0.423 µM, 0.689 µM, 0.124 µM, 0.197 µM and 0.181 µM.
The matching figures for `O=C1c2cccc3cccc(c23)N1CCCCCCN1CCN(c2ccccc2Cl)CC1`: 0.54 µM, 1.68 µM, 0.336 µM, 0.058 µM and 0.066 µM.
On to `O=C1c2cccc3cccc(c23)N1CCCCCCN1CCN(c2ccccc2C(F)(F)F)CC1`, for which the Ki amounted to 1.77 µM in test [5]; 1.13 µM in test [6]; 17.8 µM in test [7]; 0.161 µM at D(2) dopamine receptor [8]; 0.599 µM in test [9].
The matching figures for `O=C1c2cccc3cccc(c23)N1CCCCCCN1CCN(c2ccc(Cl)c(Cl)c2)CC1`: 0.493 µM, 1.86 µM, 0.166 µM, 0.246 µM and 0.161 µM.
For the compound `COc1ccc(N2CCN(CCCCC34CCCc5cccc(c53)NC4=O)CC2)cc1` (configuration not stated), the affinity in [2], expressed as Ki, was 0.02 µM.
`O=S1(=O)c2cccc3cccc(c23)N1CCCN1CCN(c2ccc(Cl)cc2)CC1`: the Ki on D(2) dopamine receptor [3] is above 1 µM; in [4], 0.005 µM.
The matching figures for `O=S1(=O)c2cccc3cccc(c23)N1CCCN1CCN(c2ccc(Br)cc2)CC1`: above 1 µM and 0.007 µM.
The matching figures for `O=S1(=O)c2cccc3cccc(c23)N1CCCN1CCN(c2ccccc2F)CC1`: above 1 µM and 0.003 µM.
Regarding `O=S1(=O)c2cccc3cccc(c23)N1CCCN1CCN(c2ccc(F)cc2)CC1` [FANANSERIN], at D(2) dopamine receptor [3], the Ki was above 1 µM.

The record behind these values is ChEMBL document CHEMBL4387769 (Bioorg Med Chem, 2019).
